Test results: patent EP3811940B1, “SUBSTITUTED 4,5'-BITHIAZOLES AS INHIBITORS OF THE HUMAN DNA TOPOISOMERASE II” (Kemijski Institut, priority 2019, dated 2021)
Where two headings read alike, the source gives them in different places. Each block holds one molecule with its values, some of them ahead of it.

Legend:
human topo IIα = target: T1, human topo IIα (Homo sapiens, UniProt P11388); assay: HTS relaxation assay of human topo IIα; assay type: biochemical; conditions: screening at 7.8, 31.5, 125 and 500 µM
T1 construct: purchased Inspiralis (Norwich, UK)
Protocol: The 14 selected compounds from the class of substituted 4,5'-bithiazoles were experimentally assayed if they inhibit catalytic activity of human topo IIα using an established high-throughput screening (HTS) relaxation assay for human topo IIα [24].
The HTS assays primarily served to select compounds for further evaluation.
Plate was rehydrated using wash buffer (20 mM Tris-HCl (pH = 7.6), 137 mM NaCl, 0.005 % (w/v) BSA, 0.05 % (v/v) TWEEN-20®) and biotinylated oligonucleotide was immobilized onto the wells. Next, the excess oligonucleotide was washed off with wash buffer. Enzyme assay was carried out in reaction volume of 30 µL using 0.75 µg supercoiled plasmid pNO1 as a substrate and human topo IIα. Enzyme was diluted to the appropriate concentration with dilution buffer comprised of 50 mM Tris-Hcl (pH = 7.5), 100 mM NaCl, 1 mM DTT, 0.5 mM EDTA, 50 % (v/v) glycerol and 50 µg/mL albumin. Tested compounds (0.3 µL) were added as a stock solution in DMSO and final concentration of DMSO was 1 %, respectively. Reactions were incubated at 37 °C for 30 min, and TF buffer (50 mM NaOAc (pH = 5.0), 50 mM NaCl, 50 mM MgCl2) was added to the wells and incubated at room temperature for additional 30 min to allow the triplex biotin-oligonucleotid-plasmid formation. To eliminate the aggregation and non-specific inhibition a surfactant (TWEEN-20®) was added to the reaction mixture. Unbound plasmid was washed off with TF buffer and stained with the DNA-detection Dye in the T10 buffer (10 mM Tris-HCl (pH = 8) and 1 mM EDTA) was added. After mixing, fluorescence was read using Tecan fluorimeter (Excitation: 485 nm and Emission: 535 nm). Screening was performed at the inhibitor concentrations of 7.8, 31.5, 125 and 500 µM. IC50 values were calculated using GraphPad Prism 6.0 software and represent the concentrations of inhibitors where residual activity of the enzyme was 50 % [24].

MCF-7 cells = assay: MTS cytotoxicity assay, MCF-7; assay type: cell-based, human; conditions: for EC50: Homo sapiens, interval in brackets; for effect on the tested cell lines: initial screening, 24 h, 100 µM for compound 6, 200 µM for 8 and 11, result in words
Excerpt: (§1) We determined the cytotoxicity of the tested compounds on human breast cancer MCF-7 and human hepatocellular carcinoma HepG2 cancer cell lines using MTS assay. Both selected human cancer cell lines are representative and well-established systems for cell-based evaluation of potential anticancer compounds. Etoposide was again used as a positive control (PC).
(§2) In the first step we performed the initial screening of compounds 1-14 at one concentration. […] Exponentially growing cells were exposed to all compounds for 24 h and the results are represented in Figure 3A.
(§3) In vitro cytotoxicity of investigated compounds was evaluated in two human cancer cell lines: the […] cell lines. The HepG2 cells (ATCC) were cultivated at 37 °C and 5 % CO2 in MEME medium (M2414, Sigma) supplemented with 10 % FBS, 2 mM L-Glutamine, 1 % NEAA, 2.2 g/L NaHCO3, 1 mM sodium pyruvate and 100 IU/mL penicillin/ streptomycin and MCF-7 (ATCC) were cultivated in Eagle's MEM medium (M5650, Sigma), supplemented with 10 % fetal bovine serum, 2 mM glutamine, and 100 IU/mL penicillin/streptomycin. After the exposure to the tested compounds the viability of HepG2 and MCF-7 cells was determined by MTS tetrazolium reduction assay. The cells were seeded onto 96-well microplates (Nunc, TermoFisher Scientific, Waltham, MA, USA) at densities of 8000 cells per well (HepG2) and 7000 cells per well (MCF-7) in […] growth medium and incubated overnight to attach. The next day, the growth medium was replaced by the fresh complete growth medium containing appropriate concentrations of the compounds. […] Finally, the absorbance was measured at wavelength of 490 nm using a Microplate Reader (Synergy MX, BioTek, Winooski, VT, USA). […] Assay was performed at 5 concentrations of each compound; 2, 25, 50, 100 and 200 µM for compounds 1, 7 and 14 and 1, 12.5, 25, 50, 100 µM for compounds 9 and 10. […] Cell viability was determined by comparing the OD (optical density) of the wells containing the cells treated with investigated compounds with those of solvent control cells and presented as % of cell viability ± SD. Experiments were performed three times independently each time in at least three replicates. EC50 values were calculated by non-linear regression analysis using GraphPad Prism 7.0 Software. Statistical significance between treated groups and the control was determined by One-way analysis of variance and Dunnett's Multiple Comparison Test.

HepG2 cells = assay: MTS cytotoxicity assay, HepG2; assay type: cell-based, human; conditions: for EC50: Homo sapiens, interval in brackets; for effect on the tested cell lines: initial screening, 24 h, 100 µM for compound 6, 200 µM for 8 and 11, result in words
Excerpt: as §1, §2, §3

[1] = solubility in the cell growth media; assay type: physicochemical; conditions: result in words
[2] = MCF7, read-out: EC50 [µM] MCF-7 (24h), 24h exposure
[3] = MCF7, 72h exposure, read-out: EC50 [µM] MCF-7 (72h)
[4] = HepG2, read-out: EC50 [µM] HepG2 (24h), 24h exposure
[5] = HepG2, 72h exposure, read-out: EC50 [µM] HepG2 (72h)

T1 sequence (P11388 whole entry): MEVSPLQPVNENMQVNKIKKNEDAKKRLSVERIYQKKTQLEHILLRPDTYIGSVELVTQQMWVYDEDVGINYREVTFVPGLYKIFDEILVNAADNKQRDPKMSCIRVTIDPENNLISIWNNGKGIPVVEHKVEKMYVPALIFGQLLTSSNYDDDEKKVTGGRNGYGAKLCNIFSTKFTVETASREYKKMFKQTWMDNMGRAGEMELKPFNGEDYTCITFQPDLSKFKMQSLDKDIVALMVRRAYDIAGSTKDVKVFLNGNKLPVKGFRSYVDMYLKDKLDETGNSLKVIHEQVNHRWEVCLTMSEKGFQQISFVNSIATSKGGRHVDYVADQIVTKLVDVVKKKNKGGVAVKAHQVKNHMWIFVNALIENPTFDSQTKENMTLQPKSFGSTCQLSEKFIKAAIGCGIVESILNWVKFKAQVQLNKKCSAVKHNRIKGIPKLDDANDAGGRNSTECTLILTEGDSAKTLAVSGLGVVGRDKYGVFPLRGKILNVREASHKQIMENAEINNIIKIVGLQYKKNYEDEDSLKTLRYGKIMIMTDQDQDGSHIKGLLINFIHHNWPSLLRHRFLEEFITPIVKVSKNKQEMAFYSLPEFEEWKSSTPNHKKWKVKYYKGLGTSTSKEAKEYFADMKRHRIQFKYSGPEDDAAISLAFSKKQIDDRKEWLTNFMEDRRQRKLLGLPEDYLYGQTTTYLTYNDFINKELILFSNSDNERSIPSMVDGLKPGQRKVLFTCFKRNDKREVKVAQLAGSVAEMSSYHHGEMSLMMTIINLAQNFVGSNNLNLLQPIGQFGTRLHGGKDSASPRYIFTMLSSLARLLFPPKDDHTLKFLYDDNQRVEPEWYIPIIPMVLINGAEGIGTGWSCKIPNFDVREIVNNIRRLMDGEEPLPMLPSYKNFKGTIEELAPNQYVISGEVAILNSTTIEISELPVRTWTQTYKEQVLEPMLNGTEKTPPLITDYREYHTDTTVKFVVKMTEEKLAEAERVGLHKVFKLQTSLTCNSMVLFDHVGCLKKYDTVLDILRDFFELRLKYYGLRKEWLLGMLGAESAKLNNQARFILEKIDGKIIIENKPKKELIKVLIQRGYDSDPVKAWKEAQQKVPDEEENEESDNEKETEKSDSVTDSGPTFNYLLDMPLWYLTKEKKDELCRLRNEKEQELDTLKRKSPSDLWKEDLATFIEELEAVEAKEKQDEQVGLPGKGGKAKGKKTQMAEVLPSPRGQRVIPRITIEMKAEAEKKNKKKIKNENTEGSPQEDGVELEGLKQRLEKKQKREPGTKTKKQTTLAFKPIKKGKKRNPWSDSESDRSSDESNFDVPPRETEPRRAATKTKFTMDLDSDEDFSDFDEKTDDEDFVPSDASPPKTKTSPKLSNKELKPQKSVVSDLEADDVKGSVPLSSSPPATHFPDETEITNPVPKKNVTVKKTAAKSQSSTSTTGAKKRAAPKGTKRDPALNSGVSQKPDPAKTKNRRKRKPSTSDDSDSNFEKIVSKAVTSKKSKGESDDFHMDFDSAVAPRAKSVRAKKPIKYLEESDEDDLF

- IC50 (human topo IIα): 120 µM
SMILES: CC(=O)Nc1nc(C)c(-c2csc(Nc3ccc(C(=O)O)cc3)n2)s1 [Compound 8, 4-((2'-acetamido-4'-methyl-[4,5'-bithiazol]-2-yl)amino)benzoic acid]
- effect on the tested cell lines (MCF-7 cells): little or no effect
- effect on the tested cell lines (HepG2 cells): little or no effect

- IC50 (human topo IIα): 222 µM
SMILES: CC(=O)c1ccc(Nc2nc(-c3sc(N)nc3C)cs2)cc1 [Compound 3, 1-(4-((2'-amino-4'-methyl-[4,5'-bithiazol]-2-yl)amino)phenyl)ethan-1-one]
- solubility in the cell growth media [1]: low solubility

- IC50 (human topo IIα): 193 µM
SMILES: CC(=O)Nc1nc(C)c(-c2csc(Nc3ccc(O)cc3)n2)s1 [Compound 12, N-(2-((4-hydroxyphenyl)amino)-4'-methyl-[4,5'-bithiazol]-2'-yl)acetamide]

- IC50 (human topo IIα): 70.1 µM
SMILES: Cc1nc(N)sc1-c1csc(Nc2ccc(S(N)(=O)=O)cc2)n1 [Compound 5, 4-((2'-amino-4'-methyl-[4,5'-bithiazol]-2-yl)amino)benzenesulfonamide]

Further lines, the molecule ahead of its results:

SMILES: CC(=O)Nc1nc(C)c(-c2csc(Nc3ccccc3)n2)s1 [Compound 14, N-(4'-methyl-2-(phenylamino)-[4,5'-bithiazol]-2'-yl)acetamide]
- IC50 (human topo IIα): 357 µM
- EC50 (MCF-7 cells; [2]): 32.3 µM
- EC50 (MCF-7 cells; [3]): 7.5 µM
- EC50 (HepG2 cells; [4]): 47.7 µM
- EC50 (HepG2 cells; [5]): 28.2 µM

SMILES: CC(=O)Nc1nc(C)c(-c2csc(Nc3cccc(C(=O)O)c3)n2)s1 [Compound 11, 3-((2'-acetamido-4'-methyl-[4,5'-bithiazol]-2-yl)amino)benzoic acid]
- IC50 (human topo IIα): 134 µM
- effect on the tested cell lines (MCF-7 cells): little or no effect
- effect on the tested cell lines (HepG2 cells): little or no effect

SMILES: COc1ccc(Nc2nc(-c3sc(NC(C)=O)nc3C)cs2)cc1 [Compound 10, N-(2-((4-methoxyphenyl)amino)-4'-methyl-[4,5'-bithiazol]-2'-yl)acetamide]
- IC50 (human topo IIα): 22.7 µM
- EC50 (MCF-7 cells; [2]): 16.4 µM
- EC50 (MCF-7 cells; [3]): 4.5 µM
- EC50 (HepG2 cells; [4]): 34.7 µM
- EC50 (HepG2 cells; [5]): 14.6 µM

SMILES: CCC(=O)Nc1nc(C)c(-c2csc(Nc3ccc(C(=O)O)cc3)n2)s1 [Compound 13, 4-((4'-methyl-2'-propionamido-[4,5'-bithiazol]-2-yl)amino)benzoic acid]
- IC50 (human topo IIα): 123 µM

SMILES: Cc1cc(NS(=O)(=O)c2ccc(Nc3nc(-c4sc(N)nc4C)cs3)cc2)no1 [Compound 4, 4-((2'-amino-4'-methyl-[4,5'-bithiazol]-2-yl)amino)-N-(5-methylisoxazol-3-yl)benzenesulfonamide]
- IC50 (human topo IIα): 30.1 µM

SMILES: Cc1cc(O)ccc1Nc1nc(-c2sc(N)nc2C)cs1 [Compound 2, 4-((2'-amino-4'-methyl-[4,5'-bithiazol]-2-yl)amino)-3-methylphenol]
- IC50 (human topo IIα): 35.8 µM

SMILES: CC(=O)Nc1nc(C)c(-c2csc(Nc3cccc(O)c3)n2)s1 [Compound 7, N-(2-((3-hydroxyphenyl)amino)-4'-methyl-[4,5'-bithiazol]-2'-yl)acetamide]
- IC50 (human topo IIα): 33.7 µM
- EC50 (MCF-7 cells; [2]): 12.3 µM
- EC50 (MCF-7 cells; [3]): 6.6 µM
- EC50 (HepG2 cells; [4]): 45.6 µM
- EC50 (HepG2 cells; [5]): 32.3 µM

SMILES: Cc1nc(N)sc1-c1csc(Nc2ccc(C(=O)O)c(O)c2)n1 [Compound 6, 4-((2'-amino-4'-methyl-[4,5'-bithiazol]-2-yl)amino)-2-hydroxybenzoic acid]
- IC50 (human topo IIα): 37.7 µM
- effect on the tested cell lines (MCF-7 cells): little or no effect
- effect on the tested cell lines (HepG2 cells): little or no effect

SMILES: Cc1nc(NC(=O)c2ccccc2)sc1-c1csc(Nc2ccc(C(=O)O)cc2)n1 [Compound 15, 4-((2'-benzamido-4'-methyl-[4,5'-bithiazol]-2-yl)amino)benzoic acid]
- IC50 (human topo IIα): 12.6 µM
